Data on 16 compounds can be found in US4661602A, “Substituted alkyl imidazole derivatives” (G. D. Searle & Co., priority 1985, dated 1987).

In brackets after ≈: the same amount, converted by molar mass. Structures can show the parent of a compound that is named as a salt.

One assay relates to B. Fragilis NCTC 10581. Nature of the assay: Anti-anaerobic activity, strain A (microtitre plate MIC/MBC). Conditions: Bacteroides fragilis, NCTC10581, 48 h, strain A; for MIC: 48 hours, 37° C., anaerobic chamber, lowest concentration with no detectable growth, read-out: MIC; for MBC: less than 5 colonies (99.9% reduction in viable count) after 48 hours, read-out: MBC. It is filed as cell-based, Bacteroides fragilis.

Another assay deals with B. Fragilis NCTC 9344. Nature of the assay: Anti-anaerobic activity, strain C (microtitre plate MIC/MBC). Conditions: Bacteroides fragilis, NCTC9344, 48 h, strain C; for MIC: 48 hours, 37° C., anaerobic chamber, lowest concentration with no detectable growth, read-out: MIC; for MBC: less than 5 colonies (99.9% reduction in viable count) after 48 hours, read-out: MBC. It is filed as cell-based.

A further assay concerns B. Fragilis ATCC 11295. Nature of the assay: Anti-anaerobic activity, strain D (microtitre plate MIC/MBC). Conditions: Bacteroides fragilis, ATCC11295, 48 h, strain D; for MIC: 48 hours, 37° C., anaerobic chamber, lowest concentration with no detectable growth; for MBC: less than 5 colonies (99.9% reduction in viable count) after 48 hours, read-out: MBC. It is filed as cell-based.

The subject of the next assay is B. Fragilis WS-1. As to the kind of experiment: Anti-anaerobic activity, strain E (microtitre plate MIC/MBC). It is filed as cell-based. Conditions: Bacteroides fragilis, 48 h, strain E; for MIC: 48 hours, 37° C., anaerobic chamber, lowest concentration with no detectable growth, read-out: MIC; for MBC: less than 5 colonies (99.9% reduction in viable count) after 48 hours, read-out: MBC.

The next assay deals with B. Fragilis NCTC 9343. Nature of the assay: Anti-anaerobic activity, strain B (microtitre plate MIC/MBC). It is filed as cell-based, Bacteroides fragilis. Conditions: Bacteroides fragilis, NCTC9343, 48 h, strain B; for MIC: 48 hours, 37° C., anaerobic chamber, lowest concentration with no detectable growth, read-out: MIC; for MBC: less than 5 colonies (99.9% reduction in viable count) after 48 hours, read-out: MBC.

As for `Clc1ccc(CN2CCN=C2C(Cn2cncn2)c2ccccc2)c(Cl)c1` (stereo not drawn) [Example 17, 1-(2,4-Dichlorophenylmethyl)-4,5-dihydro-2-[1-phenyl-2-(1,2,4-triazol-1-yl)ethyl]imidazole dihydrochloride], the MIC with B. Fragilis NCTC 10581, with B. Fragilis NCTC 9344, in the assay on B. Fragilis ATCC 11295 and in the assay on B. Fragilis WS-1 was 50 µg/mL throughout.
As for `Cc1nccn1CC(C1=NCCN1c1ccc(Cl)cc1Cl)c1ccccc1` (stereo not drawn) [Example 21, 1-(2,4-Dichlorophenyl)-4,5-dihydro-2-[2-(2-methylimidazol-1-yl)-1-phenylethyl]imidazole dihydrochloride], the MIC was 12.5 µg/mL with B. Fragilis NCTC 10581 and 1.5 µg/mL with B. Fragilis NCTC 9343. Moreover, the MBC in the assay with B. Fragilis NCTC 10581 worked out at 12.5 µg/mL; in the assay on B. Fragilis NCTC 9343, 1.5 µg/mL; in the assay with B. Fragilis NCTC 9344, 0.8 µg/mL; in the assay with B. Fragilis ATCC 11295, 0.8 µg/mL; with B. Fragilis WS-1, 0.8 µg/mL.
Consider `CCCCCCCCN1CCN=C1C(Cn1ccnc1)c1ccccc1` (stereo not drawn) [Example 19, 4,5-Dihydro-2-[2-(imidazol-1-yl)-1-phenylethyl]-1-n-octylimidazole dihydrochloride], for which the MIC in the assay on B. Fragilis NCTC 10581 was 12.5 µg/mL; with B. Fragilis NCTC 9344, 12.5 µg/mL; with B. Fragilis ATCC 11295, 25 µg/mL; in the assay with B. Fragilis WS-1 it was 12.5 µg/mL. For the same compound, the MBC with B. Fragilis NCTC 10581 is 25 µg/mL; in the assay with B. Fragilis NCTC 9343 it was 6.2 µg/mL; in the assay with B. Fragilis NCTC 9344, 25 µg/mL; in the assay with B. Fragilis ATCC 11295, 100 µg/mL; with B. Fragilis WS-1 it was 12.5 µg/mL.
Take `CSc1nccn1CC(C1=NCCN1c1ccc(Cl)cc1Cl)c1ccccc1` (stereo not drawn) [Example 22, 1-(2,4-Dichlorophenyl)-4,5-dihydro-2-[1-phenyl-2-(2-thiomethylimidazol-1-yl)ethyl]imidazole dihydrochloride]: the values for the MIC with B. Fragilis NCTC 10581 and with B. Fragilis NCTC 9343 were 6.2 µg/mL and 1.5 µg/mL, respectively. Further, the MBC came to 6.2 µg/mL in the assay with B. Fragilis NCTC 10581; 1.5 µg/mL with B. Fragilis NCTC 9343; 3.1 µg/mL with B. Fragilis NCTC 9344; 3.1 µg/mL in the assay on B. Fragilis ATCC 11295; 3.1 µg/mL in the assay on B. Fragilis WS-1.
With `CCCCCCCCCCN1CCN=C1C(Cn1ccnc1)c1ccccc1.Cl.Cl` (stereo not drawn) [Example 26, 1-n-Decyl-4,5-dihydro-2-[2-(imidazol-1-yl)-1-phenylethyl]imidazole dihydrochloride], the MIC in the assay with B. Fragilis NCTC 10581 was 2.1 µg/mL. Also, the MBC with B. Fragilis NCTC 10581 came out at 3.1 µg/mL; in the assay with B. Fragilis NCTC 9344, 3.1 µg/mL; in the assay on B. Fragilis ATCC 11295, 50 µg/mL; in the assay with B. Fragilis WS-1, 3.1 µg/mL.
Take `c1ccc(CCCN2CCN=C2C(Cn2ccnc2)c2ccccc2)cc1` (stereo not drawn) [Example 18, 4,5-Dihydro-2-[2-(imidazol-1-yl)-1-phenylethyl]-1-(3-phenylpropyl)imidazoledihydrochloride]: the MIC was 25 µg/mL in the assay with B. Fragilis NCTC 10581; 25 µg/mL in the assay with B. Fragilis NCTC 9343; 50 µg/mL in the assay on B. Fragilis NCTC 9344; 25 µg/mL against B. Fragilis ATCC 11295; 25 µg/mL in the assay with B. Fragilis WS-1.
For the compound `Clc1ccccc1N1CCN=C1C(Cn1ccnc1)c1ccccc1` (stereo not drawn) [Example 1, 1-(2-Chlorophenyl)-4,5-dihydro-2[2-(imidazol-1-yl)-1-phenylethyl]imidazole], the MIC in the assay with B. Fragilis NCTC 9343 turned out to be 12.5 µg/mL (≈ 35.6 µM); in the assay on B. Fragilis NCTC 9344, 6.2 µg/mL (≈ 17.7 µM); against B. Fragilis ATCC 11295, 6.2 µg/mL (≈ 17.7 µM); in the assay with B. Fragilis WS-1, 12.5 µg/mL (≈ 35.6 µM).
Regarding `FC(F)(F)c1cccc(N2CCN=C2C(Cn2ccnc2)c2ccccc2)c1` (stereo not drawn) [Example 4, 4,5-Dihydro-2-[2-(imidazol-1-yl)-1-phenylethyl]-1-(3-trifluoromethylphenyl)imidazole hydrochloride], the MIC in the assay on B. Fragilis NCTC 10581 was 6.2 µg/mL; in the assay with B. Fragilis NCTC 9343, 12.5 µg/mL; in the assay on B. Fragilis NCTC 9344, 12.5 µg/mL; against B. Fragilis ATCC 11295, 12.5 µg/mL; with B. Fragilis WS-1, 12.5 µg/mL.
As for `Cc1ccc(N2CCN=C2C(Cn2ccnc2)c2ccccc2)c(C)c1` (stereo not drawn) [Example 24, 4,5-Dihydro-1-(2,4-dimethylphenyl)-2-[2-(imidazol-1-yl)-1-phenylethyl]imidazole dihydrochloride], the MIC in the assay on B. Fragilis NCTC 10581 came out at 25 µg/mL; with B. Fragilis NCTC 9343 it was 12.5 µg/mL; in the assay on B. Fragilis NCTC 9344, 12.5 µg/mL; in the assay with B. Fragilis ATCC 11295 it was 12.5 µg/mL; in the assay with B. Fragilis WS-1 it was 25 µg/mL.
In the case of `CCCCCCN1CCN=C1C(Cn1ccnc1)c1ccccc1.Cl` (stereo not drawn) [Example 25, 4,5-Dihydro-1-n-hexyl-2-[2-(imidazol-1-yl)-1-phenylethyl]imidazole hydrochloride], the MIC in the assay on B. Fragilis NCTC 10581 was 25 µg/mL; in the assay with B. Fragilis NCTC 9343, 100 µg/mL; with B. Fragilis NCTC 9344, 100 µg/mL; with B. Fragilis ATCC 11295 it was 100 µg/mL; in the assay on B. Fragilis WS-1, 100 µg/mL.
`Clc1ccc(CN2CCN=C2C(Cn2ccnc2)c2ccccc2)c(Cl)c1` (stereo not drawn) [Example 15, 1-(2,4-Dichlorophenylmethyl)-4,5-dihydro-2-[2-(imidazol-1-yl)-1-phenylethyl]imidazole]: in the assay with B. Fragilis WS-1, the MIC came to 6.2 µg/mL (≈ 15.5 µM).
Turning to `CC1=NCCN1CC(C1=NCCN1c1ccc(Cl)cc1Cl)c1ccccc1` (stereo not drawn) [Example 23, 1-(2,4-Dichlorophenyl)-4,5-dihydro-2-[2-(4,5-dihydro-2-methylimidazol-1-yl)-1-phenylethyl]imidazole dihydrochloride], the minimal inhibitory concentration (MIC) in the assay with B. Fragilis NCTC 10581, in the assay with B. Fragilis NCTC 9343, with B. Fragilis NCTC 9344 and with B. Fragilis ATCC 11295 was 1.5 µg/mL throughout. Also, the MBC with B. Fragilis NCTC 10581 was 1.5 µg/mL; with B. Fragilis NCTC 9343, 3.1 µg/mL; with B. Fragilis NCTC 9344, 1.5 µg/mL; in the assay with B. Fragilis ATCC 11295 it was 1.5 µg/mL; in the assay on B. Fragilis WS-1, 1.5 µg/mL.
Take `Clc1ccc(CN2CCN=C2C(Cn2cccn2)c2ccccc2)c(Cl)c1` (stereo not drawn) [Example 16, 1-(2,4-Dichlorophenylmethyl)-4,5-dihydro-2-[1-phenyl-2-(pyrazol-1-yl)ethyl]imidazole dihydrochloride]: the MIC in the assay on B. Fragilis WS-1 came out at 100 µg/mL.
As for `Clc1ccc(N2CCN=C2C(Cn2cncn2)c2ccccc2)c(Cl)c1` (stereo not drawn) [Example 20, 1-(2,4-Dichlorophenyl)-4,5-dihydro-2-[1-phenyl-2-(1,2,4-triazol-1-yl)ethyl]imidazole], the MIC amounted to 12.5 µg/mL (≈ 32.4 µM) in the assay on B. Fragilis NCTC 10581; 25 µg/mL (≈ 64.7 µM) with B. Fragilis NCTC 9343; 25 µg/mL (≈ 64.7 µM) in the assay with B. Fragilis NCTC 9344; 25 µg/mL (≈ 64.7 µM) against B. Fragilis ATCC 11295; 25 µg/mL (≈ 64.7 µM) with B. Fragilis WS-1.
Turning to `Brc1ccc(N2CCN=C2C(Cn2ccnc2)c2ccccc2)c(Br)c1` (stereo not drawn) [Example 2, 1-(2,4-Dibromophenyl)-4,5-dihydro-2-[2-imidazol-1-yl)-1-phenylethyl]imidazole dihydrochloride], the MBC stood at 3.1 µg/mL in the assay on B. Fragilis NCTC 10581; 12.5 µg/mL in the assay with B. Fragilis NCTC 9343; 50 µg/mL in the assay with B. Fragilis NCTC 9344; 12.5 µg/mL in the assay on B. Fragilis ATCC 11295; 2.5 µg/mL with B. Fragilis WS-1. For the same compound, the MIC in the assay with B. Fragilis NCTC 9344 and against B. Fragilis ATCC 11295 was 1.5 µg/mL throughout.
For the compound `Clc1ccc(N2CCN=C2C(CCn2ccnc2)c2ccccc2)c(Cl)c1` (stereo not drawn) [Example 27, 1-(2,4-Dichlorophenyl)-4,5-dihydro-2-[3-(imidazol-1-yl)-1-phenylpropyl]imidazole], the MIC in the assay with B. Fragilis NCTC 10581 amounted to 100 µg/mL (≈ 250 µM); in the assay with B. Fragilis NCTC 9343, 100 µg/mL (≈ 250 µM); in the assay on B. Fragilis NCTC 9344 it was 100 µg/mL (≈ 250 µM); against B. Fragilis ATCC 11295, 100 µg/mL (≈ 250 µM); in the assay with B. Fragilis WS-1 it was 12.5 µg/mL (≈ 31.3 µM).

As usually defined, the MIC is the lowest concentration that inhibits growth of the organism. What is called MBC is the lowest tested concentration that kills the bacteria rather than only halting them.
